Results reported in the METLIN SMRT retention time set (Domingo-Almenara et al. 2019).

Assay: gradient 5% acetonitrile 3 min, to 50% in 2 min, to 85% in 15 min, held 3 min, 100 µL/min
Settings: column: Zorbax Extend-C18 2.1 x 50 mm; eluents: water / acetonitrile, 0.1% formic acid
Outline: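 Standards, all pure, were combined into mixtures of ~100 molecules and run at 100 μL/min on a Zorbax Extend-C18 column (2.1 × 50 mm, 1.8 μm) with water and acetonitrile, each containing 0.1% formic acid. A coupled quadrupole time-of-flight mass spectrometer operated in positive and negative ionization mode. Retention time values come from computationally picked adduct peaks, each inspected manually.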

RP-LC retention time [s] | Structure (SMILES)
916 | Cc1ccc(CNC(=O)c2ccc3cnn(Cc4ccc(F)cc4)c3c2)o1
593 | Cc1noc(C2CN(C(=O)c3ccc4ncsc4c3)C2)n1
770 | CCCNC(=O)NC1CCN(c2nc3ccccc3n(CC)c2=O)CC1
893 | Cc1ccc(C)c(CSc2nnc3c(S(=O)(=O)N4CCCC4)cccn23)c1
674 | CC(C)OCCCNC(=O)C1CCN(S(=O)(=O)c2ccc3c(c2)CCCC(=O)N3)CC1
806 | Cc1ccc(Cn2c(=O)n(CCNC(=O)CC(C)C)c3ncccc32)cc1
1050 | Cn1ccc2cc(CCC(=O)N3CCN(c4ccc(Cl)cc4)CC3)ccc21
837 | CCn1c(=O)c(C)nc2cc(-c3noc(C4CC(=O)N(c5ccccc5)C4)n3)ccc21 (stereo not drawn)
1050 | CCc1nc2cc(-c3noc(-c4ccc(C#N)cc4)n3)ccc2o1
1020 | Cn1ncc2c(N3CCCCC3)nc(C(=O)N3CCN(c4ccc(Cl)cc4)CC3)nc21
1030 | CCCS(=O)(=O)c1nc2ccc(NS(=O)(=O)c3c(C)cc(C)cc3C)cc2s1
626 | CC(C)CCNC(=O)N(C)Cc1nc2cc(C(=O)NC(C)C)ccc2n1C
599 | CCCOc1nccnc1N1CCC(N(C)C(=O)Cc2cccnc2)C1 (stereo not drawn)
786 | CC(=O)NCCCOc1ccc([N+](=O)[O-])cc1Cl
799 | Cc1ccc(-c2cn3c(CC(=O)NCc4cccs4)csc3n2)cc1C
704 | CS(=O)(=O)N1CCC(OC2CCN(C(=O)NCc3ccccc3)CC2)CC1
794 | O=C([C@@H]1C[C@H](F)CN1S(=O)(=O)c1cc(F)ccc1F)N1CCCCC1
911 | CCn1c(=O)sc2cc(S(=O)(=O)N3CCC(C(=O)Nc4ccc(F)cc4C)CC3)ccc21
857 | O=C(CN1C(=O)CCCc2cc(S(=O)(=O)N3CCCC3)ccc21)Nc1ccc(F)cc1Cl

RP-LC retention time [s] | Structure (SMILES)
852 | CCOC(=O)Cn1c(C2CC(=O)N(c3cccc(SC)c3)C2)nc2ccccc21 (stereo not drawn)
577 | CCN1CCN(S(=O)(=O)c2cc(-c3[nH]ncc3C(=O)N3CCCC3)oc2C)CC1
585 | COc1cccc(N2C(=O)CC(N3CCC(C(N)=O)CC3)C2=O)c1 (stereo not drawn)
753 | Cc1cc(=O)n(CC(C)O)c(-c2ccccc2)n1 (stereo not drawn)
781 | CCCCN1CCCC1CNC(=O)c1cc(C#N)c2ccccc2c1OC (stereo not drawn)
1190 | CCc1noc(CC2CCOC3(CCN(S(=O)(=O)c4c(C)cc(C)cc4C)CC3)C2)n1 (stereo not drawn)
830 | C=CCn1c(=O)c2sc(N(CC)CC)nc2n(CC(=O)Nc2c(C)cccc2C)c1=O
929 | CCCC(=O)Nc1ccc(-n2cnc(C(=O)N3CCN(c4cccc(C)c4C)CC3)c2)nc1
612 | O=C(Cn1c(=O)c2cccn2c2ccccc21)NCCCN1CCCCCC1
647 | CC1Cc2ccccc2N1C(=O)Cc1csc(NC(=O)c2ccc(=O)[nH]c2)n1 (stereo not drawn)
1120 | CC(C)Cc1ccc(S(=O)(=O)N2CCCC(CNC(=O)c3ccccc3)C2)cc1 (stereo not drawn)
738 | COc1ccc(NS(=O)(=O)c2ccc3c(c2)CCCC(=O)N3)cc1Cl
655 | CCc1cccc(NC(=O)Cn2ncc3c(N4CCN(c5ccccn5)CC4)ncnc32)c1
789 | COc1cccc(NC(=O)CN2C(=O)NC3(CCC(C)CC3)C2=O)c1 (stereo not drawn)
864 | COc1nn(C)cc1C(=O)Nc1ccc(Cl)c(Cl)c1
1070 | Cc1ccc(C)c(N2CCN(C(=O)c3ccc4c(c3)CCN4C(=O)C3CC3)CC2)c1
884 | Nc1ccc(N2C(=O)c3ccccc3C2=O)c(Cl)c1
632 | CCNC(=O)C1CCc2sc(C(=O)N3CCOCC3)cc2C1 (stereo not drawn)

Further lines, the compound ahead of its results:

Structure (SMILES) | RP-LC retention time [s]
Cc1ccc2[nH]c(C(=O)NCc3ccncc3)cc2c1 | 628
Cc1c(NC(=O)Nc2c(Cl)cccc2Cl)c(=O)n(-c2ccccc2)n1C | 751
COC(=O)Nc1ccc(CC(=O)NCC(F)(F)F)cc1 | 639
CNC(=O)CCc1nc2ccccc2n(CC(=O)NCCc2ccc(S(N)(=O)=O)cc2)c1=O | 612
O=C(NC1CCCCC1)c1ccc(Cn2cncn2)cc1 | 671
c1ccc(CN2CCCC(OCc3nc(-c4ccncc4)no3)C2)nc1 (stereo not drawn) | 577
Cc1c(C(=O)N2CCCC2)cnn1-c1ccc(-c2nc(C(C)(C)C)no2)cn1 | 1010
Cc1noc(C)c1CC(=O)N1CCC(Cc2noc(C3CC3)n2)C1 (stereo not drawn) | 748
Cc1ccc(-c2noc(CCN3CCN(C(C)C)CC3)n2)cc1 | 640
COc1ccc(-c2nnc(Cc3nc(-c4ccc(Cl)cc4)no3)o2)cc1 | 1070
Cc1ccccc1S(=O)(=O)Nc1ccc(C2(C(=O)NCC3CCCO3)CC2)cc1 (stereo not drawn) | 797
CCCN1C(=O)COc2ccc(-c3csc(NC(=O)C(C)C)n3)cc21 | 918
O=C(Cn1ccn2nc(-c3ccc(F)cc3)c(CO)c2c1=O)Nc1ccc2c(c1)CCC2 | 908
O=C(Cc1ccc(F)cc1)N1CCCC1c1nc(-c2ccc(F)cc2)no1 (stereo not drawn) | 1010
C/C=C1/CN2CC[C@]34C(=C(C=O)[C@H]1C[C@H]23)Nc1ccccc14 | 606
CCOCCCNC(=O)C1CCCN(S(=O)(=O)c2ccc(OC)c(C)c2)C1 (stereo not drawn) | 813

Structure (SMILES) | RP-LC retention time [s]
CSc1nc2ccc3nc(NC(=O)c4c(F)cccc4F)sc3c2s1 | 990
O=C(Cc1csc2nc(-c3ccccc3)cn12)Nc1cccc(Br)c1 | 906
COc1cccc(CNC(=O)N2CCC3(C2)C(=O)N(C)c2ccc(OC)cc23)c1 (stereo not drawn) | 704
CCc1ccc(N2CC(c3noc(-c4ccco4)n3)CC2=O)cc1 (stereo not drawn) | 921
Cc1cccc(NC(=O)N(C)CCc2noc(COc3ccccc3F)n2)c1C | 823
CCCn1ccc2sc(C)c(C(=O)NCc3ccccc3Cl)c2c1=O | 980
CCCN(CC1CCOC1)C(=O)Nc1ccccc1Cl (stereo not drawn) | 846
CCN1C(=O)C2(CCN(C(C)=O)CC2)c2ccccc21 | 707
CC(=O)OCCN1c2ccccc2Sc2cnccc21 | 663
O=C(NCc1ccncc1)c1sc2ncccc2c1-n1cccc1 | 592
CSc1ccc(CNC(=O)Cn2cnc3nc4c(cc3c2=O)CCCC4)cc1 | 733
CCc1ccccc1NC(=O)CN1C(=O)NC2(CCCCC2)C1=O | 761
Cc1cc(NS(=O)(=O)c2cn(CC(C)C)c3ncccc23)ccc1F | 989
CCNC(=O)C1CCCN(c2nc3ncn(CC(=O)NC4CCCCC4)c(=O)c3s2)C1 (stereo not drawn) | 658
COCC(=O)N(CC(=O)N1CCc2sccc2C1COc1ccc(F)cc1)C(C)(C)C (stereo not drawn) | 906
